Assay results taken from US20240366775A1, “HUMAN TRANSFERRIN RECEPTOR BINDING ANTIBODY-PEPTIDE CONJUGATE” (PEPTIDREAM INC., priority 2021, published 2024).
pKd: −log10 of the molar value. Read-outs that look alike come from different tables or passages of the source. Where a SMILES comes first, the peptide text is derived from it. Bridges are numbered along the chain shown (N, C = ends). [ ]: non-standard residue; d: D form. The star is where a group is joined. NMeY = CN[C@@H](Cc1ccc(O)cc1)C(=O)O; NMeF = CN[C@@H](Cc1ccccc1)C(=O)O; OSu = O=C1CCC(=O)N1O*; GABA = NCCCC(=O)O

Tests used:
[1] = Test substance concentration in tissue (brain migration), hTfR-KI mouse; type: in vivo, hTfR-KI mice; details: Example 7-2, tail vein 5 mg/kg, 6 and 24 hours, heart, lung, liver, spleen, kidney, quadriceps muscle, FIG. 2-4
Experimental: Blood was drawn from the tail vein after 1 and 3 hours from administration (2 mice/time point). After 6 and 24 hours from administration, mice were anesthetized with isoflurane, blood was drawn from the right ventricle, and then perfused with saline from the left ventricle for 4 to 5 min for blood removing treatment. Blood was collected using an EDTA-2K-treated needle and syringe, and the collected blood was kept on ice until it was separated into plasma. After blood removing treatment, brains were harvested and divided into left and right portions, and the left brain was embedded in a freeze-embedding agent (OCT compound, Sakura Finetek Co., Ltd.) for immunostaining and a frozen block was prepared. The right brain, heart, lung, liver, spleen, kidney, and quadriceps muscle were collected for measurement of test substance concentrations in tissues, weighed, flash-frozen in liquid nitrogen, and stored at −70° C. or less. […]
To Strept Avidin plate (Meso Scale Diagnostics, LLC), 150 μL/well of Blocker Casein in PBS (Thermo Fisher Scientific, Inc.) was added and shaken (26° C., 500 rpm) for 60 min in a plate shaker (Biosan) to perform blocking treatment. […] The concentration of each test substance in the samples were calculated by adding 150 μL/well of 2×Read Buffer T to each Strept Avidin plate and measuring with a plate reader (Sector S600, Meso Scale Diagnostics, LLC).

[2] = Test substance concentration in plasma, hTfR-KI mouse; type: in vivo, hTfR-KI mice; details: Example 7-2, tail vein 5 mg/kg, 1, 3, 6 and 24 hours, FIG. 2-3
Experimental: Blood was drawn from the tail vein after 1 and 3 hours from administration (2 mice/time point). After 6 and 24 hours from administration, mice were anesthetized with isoflurane, blood was drawn from the right ventricle, and then perfused with saline from the left ventricle for 4 to 5 min for blood removing treatment. Blood was collected using an EDTA-2K-treated needle and syringe, and the collected blood was kept on ice until it was separated into plasma.
To Strept Avidin plate (Meso Scale Diagnostics, LLC), 150 μL/well of Blocker Casein in PBS (Thermo Fisher Scientific, Inc.) was added and shaken (26° C., 500 rpm) for 60 min in a plate shaker (Biosan) to perform blocking treatment. The Blocker Casein in PBS was removed from the Strept Avidin plates, and 200 μL/well of PBST was added to each plate and washed. 25 μL/well of Capture antibody solution was added to each Strept Avidin plate, and the plates were shaken (26° C., 500 rpm) for 60 min in a plate shaker. Capture antibody solution was removed and PBST was added 200 μL/well and washed. This washing operation was performed three times. […] The concentration of each test substance in the samples were calculated by adding 150 μL/well of 2×Read Buffer T to each Strept Avidin plate and measuring with a plate reader (Sector S600, Meso Scale Diagnostics, LLC).

[3] = ELISA no-target control wells (non-specific binding of antibodies and antibody-peptide conjugates); details: sample at 100 nM, no target immobilized
Experimental: Random biotinylated PD-1 was added to IMMOBILIZER STREPTAVIDIN F96 clear (NUNC, Cat. No. 436014) at 1 μmol per one well and incubated at 4° C. overnight to perform solidification. The plate was washed with 900 μL of PBST in a plate washer (TECAN, HydroSpeed). 300 μL of 1% Block Ace (KAC Co., Ltd., Cat. No. UK-B80) was added per one well and incubated at room temperature for 90 minutes to perform blocking treatment. The plate was washed with 900 μL of PBST in the plate washer. […] The plate was washed with 900 μL of PBST in the plate washer. 50 μL of Goat Anti-Human IgG H&L (HRP) (Abcam, Cat. No. ab97165) diluted 50,000 times with PBST-0.1% Block Ace solution was added and incubated at room temperature for 45 min. The plate was washed with 900 μL of PBST in the plate washer. 50 μL of TMB Solution (Sara care, Cat. No. 5150-0077) at room temperature was added and color development was performed at room temperature for 10 min in dark place, then 50 μL of TMB Stop Solution (Sara care, Cat. No. 5150-0021) was added to stop the color development. The absorbance at 450 nm was measured in a plate reader (Enspir (trademark), Perkin Elmer).
Random biotinylated TfR was added to IMMOBILIZER STREPTAVIDIN F96 clear (NUNC, Cat. No. 436014) at 1 μmol per one well and incubated at 4° C. overnight to perform solidification. The plate was washed with 900 μL of PBST in a plate washer (TECAN, HydroSpeed). 300 μL of 1% Block Ace (KAC Co., Ltd., Cat. No. UK-B80) was added per one well and incubated at room temperature for 90 minutes to perform blocking treatment. The plate was washed with 900 μL of PBST in the plate washer. 50 μL of various antibody-peptide conjugate and antibody whose peptide is not modified diluted to a final concentration of 100 nM by 50 mM HEPES pH 7.8-0.1% Block Ace were added and incubated at room temperature for 60 min. The plate was washed with 900 μL of PBST in the plate washer. 50 μL of Goat Anti-Human IgG H&L (HRP) (Abcam, Cat. No. ab97165) diluted 50,000 times with PBST-0.1% Block Ace solution was added and incubated at room temperature for 45 min. The plate was washed with 900 μL of PBST in the plate washer. 50 μL of TMB Solution (Sara care, Cat. No. 5150-0077) at room temperature was added and color development was performed at room temperature for 10 min in dark place, then 50 μL of TMB Stop Solution (Sara care, Cat. No. 5150-0021) was added to stop the color development. The absorbance at 450 nm was measured in a plate reader (Enspir (trademark), Perkin Elmer).

[4] = biological target: human transferrin receptor (hTfR) (Homo sapiens, UniProt P02786); assay: SPR measurement of peptide binding to hTfR
Sequence of human transferrin receptor (hTfR) (P02786 whole entry): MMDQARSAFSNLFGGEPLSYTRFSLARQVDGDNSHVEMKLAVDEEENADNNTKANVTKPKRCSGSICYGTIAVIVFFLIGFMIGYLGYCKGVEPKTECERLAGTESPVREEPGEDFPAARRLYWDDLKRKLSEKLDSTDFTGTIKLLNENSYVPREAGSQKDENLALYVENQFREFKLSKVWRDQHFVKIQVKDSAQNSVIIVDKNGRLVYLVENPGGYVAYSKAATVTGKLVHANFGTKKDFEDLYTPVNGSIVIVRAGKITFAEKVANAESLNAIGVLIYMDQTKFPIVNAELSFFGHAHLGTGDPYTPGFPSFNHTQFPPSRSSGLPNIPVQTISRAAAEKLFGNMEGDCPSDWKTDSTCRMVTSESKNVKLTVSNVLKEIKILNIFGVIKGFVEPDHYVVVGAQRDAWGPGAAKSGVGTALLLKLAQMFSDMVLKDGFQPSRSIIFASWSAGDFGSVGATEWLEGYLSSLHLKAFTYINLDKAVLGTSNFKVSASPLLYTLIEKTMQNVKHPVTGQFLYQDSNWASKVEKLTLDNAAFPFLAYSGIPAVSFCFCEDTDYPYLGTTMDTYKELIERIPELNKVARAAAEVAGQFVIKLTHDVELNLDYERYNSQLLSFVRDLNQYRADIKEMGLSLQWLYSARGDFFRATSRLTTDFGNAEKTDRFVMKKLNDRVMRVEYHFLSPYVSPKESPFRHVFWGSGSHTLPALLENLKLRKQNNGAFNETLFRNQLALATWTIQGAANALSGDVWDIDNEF
Text: Note that ND indicates No Data (here, it means that no data was obtained).

[5] = measured on the naked peptide (1st to 15th amino acids, without linker) corresponding to the listed linker-attached peptide, read-out: KD value of binding to hTfR by SPR
[6] = naked peptide (1st to 15th amino acids, without linker part) corresponding to the listed linker-attached peptide, read-out: SPR of naked peptide (KD for binding to hTfR)

| pKd [4, 6] | Compound | also measured |
| --- | --- | --- |
|  | nivolumab [Nivolumab (control)] | detection in tissues [1]: detected in all tissues; concentration in plasma, time course [2]: detected in plasma at all time points evaluated and showed biphasic changes in plasma concentrations |
|  | pembrolizumab | Abs450 nm at 100 nM, No-target [3]: 0.0415 |
|  | CC[C@H](C)[C@@H]1NC(=O)[C@H](Cc2ccc(O)cc2)NC(=O)[C@H](Cc2ccc(O)cc2)NC(=O)[C@H](CC(N)=O)NC(=O)[C@H](Cc2c[nH]c3ccccc23)N(C)C(=O)[C@H](C(C)C)NC(=O)[C@H](Cc2ccccc2)N(C)C(=O)[C@H](C(C)C)NC(=O)[C@H](C)NC(=O)CSC[C@@H](C(=O)NCC(=O)NCC(=O)N[C@@H](CO)C(=O)NCC(=O)N[C@@H](CCC(=O)O)C(=O)N[C@@H](CO)C(=O)N[C@@H](CCCCNC(=O)C2CCC(CN3C(=O)C=CC3=O)CC2)C(N)=O)NC(=O)[C@H](Cc2ccc(O)cc2)N(C)C(=O)[C@H](Cc2ccc(O)cc2)NC(=O)[C@H](CCCNC(=N)N)NC(=O)[C@H](CCCNC(=N)N)NC(=O)[C@H]([C@@H](C)CC)NC1=O (some centres unmarked) [894_3m_5m_GGSGES_K(Mal)] | pKd [4, 5]: 7.00 to 9.00 |
| > 9.00 | CC[C@H](C)[C@@H]1NC(=O)[C@H](Cc2ccc(O)cc2)NC(=O)[C@H](Cc2ccc(O)cc2)NC(=O)[C@H](CC(N)=O)NC(=O)[C@H](Cc2c[nH]c3ccccc23)NC(=O)[C@H](C(C)C)NC(=O)[C@H](Cc2ccccc2)NC(=O)[C@H](C(C)C)NC(=O)[C@H](C)NC(=O)CSC[C@@H](C(=O)NCCOCCOCCOCCOCCOCCOCCOCCOCCOCCOCCOCCOCCC(=O)NN)NC(=O)[C@H](Cc2ccc(O)cc2)N(C)C(=O)[C@H](Cc2ccc(O)cc2)NC(=O)[C@H](CCCNC(=N)N)NC(=O)[C@H](CCCNC(=N)N)NC(=O)[C@](C)([C@@H](C)CC)NC1=O [hTfR_000894_PEG11_(Hydrazine)] |  |
| 7.00 to 9.00 | CC[C@H](C)[C@@H]1NC(=O)[C@H](Cc2ccc(O)cc2)NC(=O)[C@H](Cc2ccc(O)cc2)NC(=O)[C@H](CC(N)=O)NC(=O)[C@H](Cc2c[nH]c3ccccc23)N(C)C(=O)[C@H](C(C)C)NC(=O)[C@H](Cc2ccccc2)N(C)C(=O)[C@H](C(C)C)NC(=O)[C@H](C)NC(=O)CSC[C@@H](C(=O)NCC(=O)NCC(=O)NCC(=O)NCC(=O)N[C@@H](CO)C(=O)N[C@@H](CO)C(=O)N[C@@H](CCCCn2cc(CN3C(=O)C=CC3=O)nn2)C(N)=O)NC(=O)[C@H](Cc2ccc(O)cc2)N(C)C(=O)[C@H](Cc2ccc(O)cc2)NC(=O)[C@H](CCCNC(=N)N)NC(=O)[C@H](CCCCN)NC(=O)[C@H]([C@@H](C)CC)NC1=O [894_11K_3Me_5Me_G4S2_KTrzMal] |  |
| > 9.00 | CC[C@H](C)[C@@H]1NC(=O)[C@H](Cc2ccc(O)cc2)NC(=O)[C@H](Cc2ccc(O)cc2)NC(=O)[C@H](CC(N)=O)NC(=O)[C@H](Cc2c[nH]c3ccccc23)NC(=O)[C@H](C(C)C)NC(=O)[C@H](Cc2ccccc2)NC(=O)[C@H](C(C)C)NC(=O)[C@H](C)NC(=O)CSC[C@@H](C(=O)NCC(=O)N[C@@H](CCC(=O)O)C(=O)NCC(=O)N[C@@H](CCC(=O)O)C(=O)NCCOCCOCCOCCOCCOCCOCCOCCOCCOCCOCCOCCOCCC(=O)NN)NC(=O)[C@H](Cc2ccc(O)cc2)N(C)C(=O)[C@H](Cc2ccc(O)cc2)NC(=O)[C@H](CCCNC(=N)N)NC(=O)[C@H](CCCNC(=N)N)NC(=O)[C@H]([C@@H](C)CC)NC1=O [hTfR_894_(GEGE)PEG12_Hydrazide] |  |
|  | ipilimumab | Abs450 nm at 100 nM, No-target [3]: 0.044 |
|  | pertuzumab | Abs450 nm at 100 nM, No-target [3]: 0.0455 |
| > 9.00 | CC[C@H](C)[C@@H]1NC(=O)[C@H](Cc2ccc(O)cc2)NC(=O)[C@H](Cc2ccc(O)cc2)NC(=O)[C@H](CC(N)=O)NC(=O)[C@H](Cc2c[nH]c3ccccc23)NC(=O)[C@H](C(C)C)NC(=O)[C@H](Cc2ccccc2)NC(=O)[C@H](C(C)C)NC(=O)[C@H](C)NC(=O)CSC[C@@H](C(=O)NCCOCCOCCOCCOCCOCCOCCOCCOCCOCCOCCOCCOCCC(=O)N[C@@H](CCCCNC(=O)C2CCC(CN3C(=O)C=CC3=O)CC2)C(N)=O)NC(=O)[C@H](Cc2ccc(O)cc2)N(C)C(=O)[C@H](Cc2ccc(O)cc2)NC(=O)[C@H](CCCNC(=N)N)NC(=O)[C@H](CCCNC(=N)N)NC(=O)[C@H]([C@@H](C)CC)NC1=O (some centres unmarked) [hTfR_000894_PEG11_K (Maleimide)] |  |
| 7.00 to 9.00 | CC[C@H](C)[C@@H]1NC(=O)[C@H](Cc2ccc(O)cc2)NC(=O)[C@H](Cc2ccc(O)cc2)NC(=O)[C@H](CC(N)=O)NC(=O)[C@H](Cc2c[nH]c3ccccc23)NC(=O)[C@H](C(C)C)NC(=O)[C@H](Cc2ccccc2)N(C)C(=O)[C@H](C(C)C)NC(=O)[C@H](C)NC(=O)CSC[C@@H](C(=O)NCC(=O)NCC(=O)N[C@@H](CCC(N)=O)C(=O)NCC(=O)N[C@@H](CCC(N)=O)C(=O)N[C@@H](CO)C(=O)NCC(=O)NCC(=O)N[C@@H](CCC(N)=O)C(=O)NCC(=O)N[C@@H](CCC(N)=O)C(=O)N[C@@H](CO)C(=O)NCCCC(=O)ON2C(=O)CCC2=O)NC(=O)[C@H](Cc2ccc(O)cc2)N(C)C(=O)[C@H](Cc2ccc(O)cc2)NC(=O)[C@H](CCCNC(=N)N)NC(=O)[C@H](CCCNC(=N)N)NC(=O)[C@H]([C@@H](C)CC)NC1=O [894_3m_GGQGQSx2_gAbu(NHS)] ({CH2CO}-AV[NMeF]VWNYYIIRRY[NMeY]CGGQGQSGGQGQS[GABA]-OSu; thioether N-15) |  |
|  | CC[C@H](C)[C@@H]1NC(=O)[C@H](Cc2ccc(O)cc2)NC(=O)[C@H](Cc2ccc(O)cc2)NC(=O)[C@H](CC(N)=O)NC(=O)[C@H](Cc2c[nH]c3ccccc23)NC(=O)[C@H](C(C)C)NC(=O)[C@H](Cc2ccccc2)N(C)C(=O)[C@H](C(C)C)NC(=O)[C@H](C)NC(=O)CSC[C@@H](C(=O)NCC(=O)NCC(=O)N[C@H](CCC(=O)O)C(=O)NCC(=O)NCC(=O)N[C@H](CCC(=O)O)C(=O)NCC(=O)NCC(=O)N[C@H](CCC(=O)O)C(=O)NCC(=O)NCC(=O)N[C@H](CCCCNC(=O)C2CCC(CN3C(=O)C=CC3=O)CC2)C(N)=O)NC(=O)[C@H](Cc2ccc(O)cc2)N(C)C(=O)[C@H](Cc2ccc(O)cc2)NC(=O)[C@H](CCCNC(=N)N)NC(=O)[C@H](CCCNC(=N)N)NC(=O)[C@H]([C@@H](C)CC)NC1=O (some centres unmarked) [894_3m_Linke04_dk(Mal)] | pKd [4, 5]: 7.00 to 9.00 |
| > 9.00 | CC[C@H](C)[C@@H]1NC(=O)[C@H](Cc2ccc(O)cc2)NC(=O)[C@H](Cc2ccc(O)cc2)NC(=O)[C@H](CC(N)=O)NC(=O)[C@H](Cc2c[nH]c3ccccc23)NC(=O)[C@H](C(C)C)NC(=O)[C@H](Cc2ccccc2)NC(=O)[C@H](C(C)C)NC(=O)[C@H](C)NC(=O)CSC[C@@H](C(=O)NCCOCCOCCOCCOCCOCCOCCOCCOCCOCCOCCOCCOCCOCCOCCOCCOCCOCCOCCOCCOCCOCCOCCOCCOCCOCCOCCOCCOCCOCCOCCOCCOCCOCCOCCOCCOCCC(=O)NN)NC(=O)[C@H](Cc2ccc(O)cc2)N(C)C(=O)[C@H](Cc2ccc(O)cc2)NC(=O)[C@H](CCCNC(=N)N)NC(=O)[C@H](CCCNC(=N)N)NC(=O)[C@H]([C@@H](C)CC)NC1=O [hTIR_000894_PEG36_(Hydrazine)] |  |
| 7.00 to 9.00 | CC[C@H](C)[C@@H]1NC(=O)[C@H](Cc2ccc(O)cc2)NC(=O)[C@H](Cc2ccc(O)cc2)NC(=O)[C@H](CC(N)=O)NC(=O)[C@H](Cc2c[nH]c3ccccc23)NC(=O)[C@H](C(C)C)NC(=O)[C@H](Cc2ccccc2)N(C)C(=O)[C@H](C(C)C)NC(=O)[C@H](C)NC(=O)CSC[C@@H](C(=O)NCC(=O)NCC(=O)NCC(=O)NCC(=O)N[C@@H](CO)C(=O)N[C@@H](CO)C(=O)N[C@@H](CCCCn2cc(CN3C(=O)C=CC3=O)nn2)C(N)=O)NC(=O)[C@H](Cc2ccc(O)cc2)N(C)C(=O)[C@H](Cc2ccc(O)cc2)NC(=O)[C@H](CCCNC(=N)N)NC(=O)[C@H](CCCCN)NC(=O)[C@H]([C@@H](C)CC)NC1=O [894_11K_3MeF_G4S2_KTrzMal] |  |
